Data reported in US8080529B2, “Macrolides with anti-inflammatory activity” (Glaxo Group Limited, priority 2005, dated 2011).
Like-named read-outs stand apart in the source and are kept apart here.

Columns and labels:
[1] = test system: A549; assay: Cytotoxicity assay (MTT), A549 cell line; format: cell-based; details: 24 h
Method in brief: (§1)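 Hep G2 and A549 cells were cultured 24 h at 37° C in RPM medium with test compounds at 50 μM and 12.5 μM. MTT was added for 0.5-2 h and formazan read at 490 nm. Growth value calculated as OD490 treated/OD490 nontreated ×100.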

[2] = test system: TNF-α; assay: Lipopolysaccharide induced TNF-α production in Balb/cJ mice; format: in vivo; details: Mus musculus, ip, 1.5 h, read-out: % inhibition of TNF-α production (plasma)
Method: Male Balb/cJ mice (Iffa Credo, France) weighing 25-33 g were randomly grouped (n=7 in test group, 7 in positive control group, 4 in negative control group). Test compounds, as well as vehicle [0.125% carboxymethyl-cellulose (Sigma, USA)], were administered to the mice intraperitoneally. Test compounds were administered at a dose of 10 mg/kg of body weight, in a volume of 10 mL/kg of body weight. Thirty minutes later, a sterile solution of lipopolysaccharide (LPS) (Sigma, USA) in saline was intraperitoneally administered at a concentration and volume of 25 μg/0.2 mL/mouse to each animal, except those in negative control. Ninety minutes following administration, all animals were sacrificed by puncturing a. carotis communis. The plasma concentration of TNF-α was determined by sandwich ELISA, using capture and detection antibodies (R&D, USA) according to manufacturer's recommendations. Results are presented in the following table as percent of inhibition of TNF-α production in comparison to the positive control (stimulated, but untreated animals).

[3] = test system: human peripheral blood mononuclear cells (PBMC); assay: Effects on human T-cell proliferation in vitro (3H-thymidine incorporation); format: cell-based; details: Homo sapiens, PBMC, read-out: Percentage of inhibition of proliferation of stimulated PBMC
Method: The influence of the various test compounds at two different concentrations (50 μM and 10 μM) on cell proliferation of human peripheral blood mononuclear cells (PBMC) was assessed. […] The cells were pulsed with 1 μCi of ^3H-thymidine (Amersham, USA) per well during the last 18 h of the culture, and were harvested on the 96-well filter (Packard Bioscience, USA) using a multiple cell harvester (Packard, USA). The incorporation of ^3H-thymidine in activated cells were measured using TopCount NXT (Packard, USA). […] The positive control refers to LPS-, PMA- or zymosan-stimulated samples that were not treated with test compounds.

[4] = test system: Hep G2; assay: Cytotoxicity assay (MTT), Hep G2 cell line; format: cell-based; details: 24 h
Method in brief: as §1

[5] = test system: granulocytes; assay: Inhibition of degranulation of granulocytes (free neutrophil elastase activity); format: cell-based, human; details: Homo sapiens, Neutrophil, compound 50 μM, read-out: Percentage of inhibition of degranulation of granulocytes
Method: Granulocytes were obtained from heparinized whole blood using density gradiant centrifugation. Erythrocytes were sedimented on 3% dextran T-500 (Amersham Pharmacia Biotech AB, Uppsala, Sweden). Leukocytes were centrifuged on Ficoll (Amersham Pharmacia Biotech AB, Uppsala, Sweden) for 35 min at 600 g at 20° C. The pellet of granulocytes was cleared from remaining erythrocytes by a brief hypotonic lysis.
1×10^6 granulocytes, isolated as described above, were resuspended in RPMI-1640 medium (Institute of Immunology, Croatia), and were incubated with 10 or 50 μM of test compound together with cytochalasine B (5 μg/mL) for 2 h at 37° C. Degranulation then was induced by the addition of 0.1 μM fMLP (Sigma, USA) or 0.5 μM A23187 (Calbiochem, USA). The activity of free neutrophil elastase was determined with a chromogenic substrate specific for human neutrophil elastase, such as N-(methoxysuccinyl)-L-alanyl-L-alanyl-L-prolyl-L-valine 4-nitroanilide (Sigma Chemical Company, St Louis, Mo., USA). Elastase activity, as a marker of primary granules, was assessed in supernatant using a spectrophotometer at an absorbance of 405 nm.
Results are expressed as the percent of inhibition of degranulation in unstimulated cells, and in stimulated cells treated with fMLP or A23187.

[6] = 10 mg/kg intraperitoneally, 30 min before LPS, 90 min after LPS

| SMILES | Percentage of inhibition of cell growth ([1]; 12.5 μM) [%] | Percentage of inhibition of cell growth ([1]; 50 μM) [%] | inhibition in vivo at 10 mg/kg [2, 6] [%] | inhibition at 10 µM ([3]; PHA) [%] | inhibition at 50 µM ([3]; PHA) [%] | inhibition at 10 µM ([3]; PMA + iono.) [%] | inhibition at 50 µM ([3]; PMA + iono.) [%] | Percentage of inhibition of cell growth ([4]; 12.5 μM) [%] | Percentage of inhibition of cell growth ([4]; 50 μM) [%] | inhibition in vivo at 10 mg/kg [2] [%] | inhibition at 50 µM ([5]; A23187 0.5 μM) [%] | inhibition at 50 µM ([5]; fMLP 0.1 μM) [%] |
| --- | --- | --- | --- | --- | --- | --- | --- | --- | --- | --- | --- | --- |
| CC[C@H]1OC(=O)[C@H](C)[C@@H](O[C@H]2C[C@@](C)(OC)[C@@H](OC(=O)CCN(CC)CC)[C@H](C)O2)[C@H](C)[C@@H](O[C@@H]2O[C@H](C)C[C@H](N(C)C)[C@H]2O)[C@](C)(O)C[C@@H](C)NC(=O)[C@H](C)[C@@H](O)[C@]1(C)O [Example 2, 4″-O-(3-Diethylamino-propionyl)-8a-aza-8a-homoerythromycin A] | 0 | 3 | 59 | 35 | 41 | 1 | 31 | 0 | 1 |  |  |  |
| CC[C@H]1OC(=O)[C@H](C)[C@@H](O[C@H]2C[C@@](C)(OC)[C@@H](OC(=O)CCN3CCN(CCN(CC)CC)CC3)[C@H](C)O2)[C@H](C)[C@@H](O[C@@H]2O[C@H](C)C[C@H](N(C)C)[C@H]2O)[C@](C)(OC)C[C@@H](C)C(=O)N[C@H](C)[C@@H](O)[C@]1(C)O [Example 14] | 4 | 0 | 96 | 23 | 99 | 24 | 91 | 0 | 0 |  |  |  |
| CC[C@H]1OC(=O)[C@H](C)[C@@H](O[C@H]2C[C@@](C)(OC)[C@@H](OC(=O)CCN3CCN(CCCN(CC)CC)CC3)[C@H](C)O2)[C@H](C)[C@@H](O[C@@H]2O[C@H](C)C[C@H](N(C)C)[C@H]2O)[C@](C)(OC)C[C@@H](C)C(=O)N[C@H](C)[C@@H](O)[C@]1(C)O [Example 31] | 0 | 0 | 92 | 23 | 99 | 24 | 91 | 0 | 0 |  |  |  |
| CC[C@H]1OC(=O)[C@H](C)[C@@H](O[C@H]2C[C@@](C)(OC)[C@@H](OCCCN(CC)CC)[C@H](C)O2)[C@H](C)[C@@H](O[C@@H]2O[C@H](C)C[C@H](N(C)C)[C@H]2O)[C@](C)(OC)C[C@@H](C)C(=O)N[C@H](C)[C@@H](O)[C@]1(C)O [Example 73, 4″-O-(3-Diethylaminopropyl)-6-O-methyl-9a-aza-9a-homoerythromycin A] | 0 | 0 |  |  |  |  |  | 0 | 0 | 90 |  |  |
| CC[C@H]1OC(=O)[C@H](C)[C@@H](O[C@H]2C[C@@](C)(OC)[C@@H](O)[C@H](C)O2)[C@H](C)[C@@H](O[C@@H]2O[C@H](C)C[C@H](N(C)C)[C@H]2O)[C@](C)(O)C[C@@H](C)C(=O)[C@H](C)[C@@H](O)[C@]1(C)O [erythromycin, reference compound] |  |  |  |  |  |  |  |  |  |  | 0 | 23 |
